Results as given in patent publication US12528826B2, “[1,4]oxazepino[2,3-c]quinolinone derivatives as BCL6 inhibitors” (Cancer Research Technology Limited, priority 2019, dated 2026).

The molecules below were run against T1, Trx-6×His-BCL6 (human BCL6 BTB domain covering amino-acid sequence 5-129) (Homo sapiens, UniProt P41182) (assay: HTRF assay (BCL6 / BCOR peptide)). Details: 1 nM Trx-6×His-BCL6, 300 nM BCOR-AF633 peptide, 2 hours incubation at room temperature.
T1 construct: made in house
Assay type: binding
Method: After 2 hours incubation at room temperature the plate was read on a Pherastar FSX (BMG Labtech) plate reader equipped with 337 nm laser excitation filter, a first emission filter at 620 nm and a second emission filter at 665 nm. The % inhibition at each concentration was calculated by normalising FRET ratio to the appropriate high (DMSO with all reagents) and low (DMSO without BCL6) controls.

`Cc1nccc(Nc2ccc3c(c2)c2c(c(=O)n3C)OCC(F)(F)[C@H](C3CC3)N2)c1Cl` [Example 4e, (S)-10-((3-chloro-2-methylpyridin-4-yl)amino)-2-cyclopropyl-3,3-difluoro-7-methyl-1,2,3,4-tetrahydro-[1,4]oxazepino[2,3-c]quinolin-6(7H)-one] was tested, and the “HTRF avg pIC50” value was 7.73.

Same assay, conditions: 1 nM Trx-6×His-BCL6, 300 nM BCOR-AF633 peptide, 2 hours incubation at room temperature; read-out: HTRF avg pIC50 (converted)

Going from `Cn1c(=O)c2c(c3cc(Nc4nc(N5CC6CC5CC6(F)F)ncc4Cl)ccc31)N[C@@H](C1CC1)C(F)(F)CO2` (mixture of isomers) [Example 9l, (S)-10-((5-chloro-2-((1R,4R)-5,5-difluoro-2-azabicyclo[2.2.1]heptan-2-yl)pyrimidin-4-yl)amino)-2-cyclopropyl-3,3-difluoro-7-methyl-1,2,3,4-tetrahydro-[1,4]oxazepino[2,3-c]quinolin-6(7H)-one; (S)-10-((5-chloro-2-((1S,4S)-5,5-difluoro-2-azabicyclo[2.2.1]heptan-2-yl)pyrimidin-4-yl)amino)-2-cyclopropyl-3,3-difluoro-7-methyl-1,2,3,4-tetrahydro-[1,4]oxazepino[2,3-c]quinolin-6(7H)-one] to `Cn1c(=O)c2c(c3cc(Nc4nc(N5CC[C@@H]5CO)ncc4Cl)ccc31)N[C@@H](C1CC1)C(F)(F)CO2` [Example 12x33b, (S)-10-((5-chloro-2-((R)-2-(hydroxymethyl)azetidin-1-yl)pyrimidin-4-yl)amino)-2-cyclopropyl-3,3-difluoro-7-methyl-1,2,3,4-tetrahydro-[1,4]oxazepino[2,3-c]quinolin-6(7H)-one], the IC50 falls from 11.7 nM to 7.76 nM (1.5-fold).

Compared with `C[C@H]1CN(c2ncc(Cl)c(Nc3ccc4c(c3)c3c(c(=O)n4C)OCC(F)(F)[C@H](C4CC4)N3)n2)CC(=O)N1C` [Example 1c, (S)-10-((5-chloro-2-((S)-3,4-dimethyl-5-oxopiperazin-1-yl)pyrimidin-4-yl)amino)-2-cyclopropyl-3,3-difluoro-7-methyl-1,2,3,4-tetrahydro-[1,4]oxazepino[2,3-c]quinolin-6(7H)-one], `Cn1c(=O)c2c(c3cc(Nc4nc(N5CCN6C(=O)CCC6C5)ncc4Cl)ccc31)N[C@@H](C1CC1)C(F)(F)CO2` (mixture of isomers) [Example 12i, (S)-10-((5-chloro-2-((R)-6-oxohexahydropyrrolo[1,2-a]pyrazin-2(1H)-yl)pyrimidin-4-yl)amino)-2-cyclopropyl-3,3-difluoro-7-methyl-1,2,3,4-tetrahydro-[1,4]oxazepino[2,3-c]quinolin-6(7H)-one:(S)-10-((5-chloro-2-((S)-6-oxohexahydropyrrolo[1,2-a]pyrazin-2(1H)-yl)pyrimidin-4-yl)amino)-2-cyclopropyl-3,3-difluoro-7-methyl-1,2,3,4-tetrahydro-[1,4]oxazepino[2,3-c]quinolin-6(7H)-one (1:1)] is 1.8-fold lower in IC50: 2.34 nM for the first, 1.29 nM for the second.

First: CCN1CC2CCC(C1=O)N2c1ncc(Cl)c(Nc2ccc3c(c2)c2c(c(=O)n3C)OCC(F)(F)[C@H](C3CC3)N2)n1 (mixture of isomers) [Example 9r, (S)-10-((5-chloro-2-((1S,5R)-3-ethyl-2-oxo-3,8-diazabicyclo[3.2.1]octan-8-yl)pyrimidin-4-yl)amino)-2-cyclopropyl-3,3-difluoro-7-methyl-1,2,3,4-tetrahydro-[1,4]oxazepino[2,3-c]quinolin-6(7H)-one; (S)-10-((5-chloro-2-((1R,5S)-3-ethyl-2-oxo-3,8-diazabicyclo[3.2.1]octan-8-yl)pyrimidin-4-yl)amino)-2-cyclopropyl-3,3-difluoro-7-methyl-1,2,3,4-tetrahydro-[1,4]oxazepino[2,3-c]quinolin-6(7H)-one]
Second: CC1CCCN(c2ncc(Cl)c(Nc3ccc4c(c3)c3c(c(=O)n4C)OCC(F)(F)[C@H](C4CC4)N3)n2)C1C (stereo partly drawn) [Example 12x08, (2S)-10-((5-chloro-2-(2,3-dimethylpiperidin-1-yl)pyrimidin-4-yl)amino)-2-cyclopropyl-3,3-difluoro-7-methyl-1,2,3,4-tetrahydro-[1,4]oxazepino[2,3-c]quinolin-6(7H)-one]
The IC50 of the first is 16-fold lower: 3.63 nM for the first, 58.9 nM for the second.

Going from `C[C@H]1CN(c2ncc(F)c(Nc3ccc4c(c3)c3c(c(=O)n4C)OCC(F)(F)[C@H](C4CC4)N3)n2)CCO1` [Example 13p08, (S)-2-cyclopropyl-3,3-difluoro-10-((5-fluoro-2-((S)-2-methylmorpholino)pyrimidin-4-yl)amino)-7-methyl-1,2,3,4-tetrahydro-[1,4]oxazepino[2,3-c]quinolin-6(7H)-one] to `Cn1c(=O)c2c(c3cc(Nc4nc(N5CC(O)CC6(CC6)C5)ncc4Cl)ccc31)N[C@@H](C1CC1)C(F)(F)CO2` (mixture of isomers) [Example 11h, (S)-10-((5-chloro-2-((R)-7-hydroxy-5-azaspiro[2.5]octan-5-yl)pyrimidin-4-yl)amino)-2-cyclopropyl-3,3-difluoro-7-methyl-1,2,3,4-tetrahydro-[1,4]oxazepino[2,3-c]quinolin-6(7H)-one:(S)-10-((5-chloro-2-((S)-7-hydroxy-5-azaspiro[2.5]octan-5-yl)pyrimidin-4-yl)amino)-2-cyclopropyl-3,3-difluoro-7-methyl-1,2,3,4-tetrahydro-[1,4]oxazepino[2,3-c]quinolin-6(7H)-one (1:1)], the IC50 falls from 10.5 nM to 5.62 nM (1.9-fold).

`CC1CC(C(=O)N2CC(F)(F)C2)CN(c2ncc(Cl)c(Nc3ccc4c(c3)c3c(c(=O)n4C)OCC(F)(F)[C@H](C4CC4)N3)n2)C1` (stereo partly drawn) [Example 12x31, (2S)-10-((5-chloro-2-(3-(3,3-difluoroazetidine-1-carbonyl)-5-methylpiperidin-1-yl)pyrimidin-4-yl)amino)-2-cyclopropyl-3,3-difluoro-7-methyl-1,2,3,4-tetrahydro-[1,4]oxazepino[2,3-c]quinolin-6(7H)-one] and `Cn1c(=O)c2c(c3cc(Nc4nc(N5CC6(CN(CC7CC7(F)F)C6)C5)ncc4Cl)ccc31)N[C@@H](C1CC1)C(F)(F)CO2` (stereo partly drawn) [Example 9x, (2S)-10-((5-chloro-2-(6-((2,2-difluorocyclopropyl)methyl)-2,6-diazaspiro[3.3]heptan-2-yl)pyrimidin-4-yl)amino)-2-cyclopropyl-3,3-difluoro-7-methyl-1,2,3,4-tetrahydro-[1,4]oxazepino[2,3-c]quinolin-6(7H)-one] are within 1.5-fold of each other in IC50: 3.8 nM for the first, 3.47 nM for the second.

`CN(C)c1cc(Nc2ccc3c(c2)c2c(c(=O)n3C)OCC(F)(F)[C@H](C3CC3)N2)c(Cl)cn1` [Example 13c12, (S)-2-cyclopropyl-10-((2-(dimethylamino)-5-chloropyridin-4-yl)amino)-3,3-difluoro-7-methyl-1,2,3,4-tetrahydro-[1,4]oxazepino[2,3-c]quinolin-6(7H)-one] and `Cn1c(=O)c2c(c3cc(Nc4nc(NC5CCC(F)(F)CC5)ncc4Cl)ccc31)N[C@@H](C1CC1)C(F)(F)CO2` [Example 12x24, (S)-10-((5-chloro-2-((4,4-difluorocyclohexyl)amino)pyrimidin-4-yl)amino)-2-cyclopropyl-3,3-difluoro-7-methyl-1,2,3,4-tetrahydro-[1,4]oxazepino[2,3-c]quinolin-6(7H)-one] are within 1.5-fold of each other in IC50: 19.5 nM for the first, 14.5 nM for the second.

`Cn1c(=O)c2c(c3cc(Nc4nc(N5CC6(CN(CC7CC7)C6)C5)ncc4Cl)ccc31)N[C@@H](C1CC1)C(F)(F)CO2` [Example 9w, (S)-10-((5-chloro-2-(6-(cyclopropylmethyl)-2,6-diazaspiro[3.3]heptan-2-yl)pyrimidin-4-yl)amino)-2-cyclopropyl-3,3-difluoro-7-methyl-1,2,3,4-tetrahydro-[1,4]oxazepino[2,3-c]quinolin-6(7H)-one] showed an IC50 of 2.75 nM.
